Assay results published in patent US20250099448A1, “HETEROCYCLIC COMPOUNDS” (Hoffmann-La Roche Inc., priority 2022, published 2025).

Each compound was assayed against T1, MAGL protein (Homo sapiens, UniProt Q99685) (assay: 2-AG assay: MAGL inhibitory activity by hydrolysis of 2-arachidonoylglycerol to arachidonic acid, followed by mass spectrometry). Conditions: 8 μM 2-arachidonoylglycerol, 15 min preincubation, 30 min reaction at RT, RapidFire MS readout.
T1 sequence (Q99685 1-303): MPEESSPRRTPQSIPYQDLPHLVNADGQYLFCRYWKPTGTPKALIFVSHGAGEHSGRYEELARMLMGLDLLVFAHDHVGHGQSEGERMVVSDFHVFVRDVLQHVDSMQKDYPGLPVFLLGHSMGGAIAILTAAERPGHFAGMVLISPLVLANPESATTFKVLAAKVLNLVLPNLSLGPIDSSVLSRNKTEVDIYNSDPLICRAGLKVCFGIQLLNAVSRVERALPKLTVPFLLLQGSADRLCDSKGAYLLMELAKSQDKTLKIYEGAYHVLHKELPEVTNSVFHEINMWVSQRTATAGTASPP
Assay type: biochemical
Experimental: Compounds of formula (I) were profiled for MAGL inhibitory activity by determining the enzymatic activity by following the hydrolysis of the natural substrate 2-arachidonoylglycerol (2-AG) resulting in arachidonic acid, which can be followed by mass spectrometry. This assay is hereinafter abbreviated “2-AG assay”. The 2-AG assay was carried out in 384 well polypropylene assay plates. Compound dilutions were made in 100% DMSO in a polypropylene plate in 3-fold dilution steps to give a final concentration range in the assay from 12.5 μM to […]. Compound dilutions were added to MAGL protein in assay buffer (50 mM TRIS, 1 mM EDTA, 0.01% (v/v) Tween-20, 2.5% (v/v) DMSO). After shaking, the plate was incubated for 15 min at RT. To start the reaction, 2-arachidonoylglycerol in assay buffer was added. The final concentrations in the assay was […] for MAGL protein and 8 μM 2-arachidonoylglyerol. After shaking and 30 min incubation at RT, the reaction was quenched by the addition of two assay volumes of acetonitrile containing 4 μM of d8-arachidonic acid. The amount of arachidonic acid formed was traced by an online SPE system (Agilent Rapidfire) coupled to a triple quadrupole mass spectrometer. A C18 SPE cartridge (Agilent G9205A) was used in an acetonitrile/water liquid setup. The mass spectrometer was operated in negative electrospray mode following the mass transitions 303.1→259.1 for arachidonic acid and 311.1→267.0 for d8-arachidonic acid. The activity of the compounds was calculated based on the ratio of intensities [arachidonic acid/d8-arachidonic acid].

First: O=C(N1CC2(CC(c3nc(C4CC4)n[nH]3)C2)C1)N1CC2(CN(Cc3cc(C4CCC4)[nH]n3)C2)C1 [compound 614]
Second: O=C(N1CC2(CC(c3nc(C4CC4)n[nH]3)C2)C1)N1CC2(CN(Cc3cc(C(F)(F)F)on3)C2)C1 [compound 609]
The IC50 of the first is 1.5-fold lower: 5.49 nM for the first, 8.32 nM for the second. The first is the more potent here.

Going from `O=C(N1CC(c2ccc(C3(C(F)(F)F)CC3)cc2)C1)N1CC2(CC(c3ncn[nH]3)C2)C1` [compound 635] to `O=C(N1CC(c2ccc(C3(CO)CC3)cc2)C1)N1CC2(CC(c3nnc(C4CC4)[nH]3)C2)C1` [compound 295], the IC50 falls from 950 nM to 1.41 nM (670-fold).

Compared with `O=C(N1CC(c2ccc([C@H]3C[C@H](C(F)F)C3)cc2)C1)N1CC2(CC(c3nnc(C4CC4)[nH]3)C2)C1` (single isomer, unassigned) [Example 304, Trans-[6-(5-Cyclopropyl-4H-1,2,4-triazol-3-yl)-2-azaspiro[3.3]heptan-2-yl]-[3-[4-[3-(difluoromethyl)cyclobutyl]phenyl]azetidin-1-yl]methanone], `NS(=O)(=O)c1ccc(C2CN(C(=O)N3CC4(CC(c5nnc(C6CC6)[nH]5)C4)C3)C2)cc1` [compound 380] is 360-fold higher in IC50: 0.18 nM for the first, 64.2 nM for the second. The first is the more potent here.

Compared with `O=C(N1CC2(CCC(Cc3ccc(C(F)(F)F)cn3)CC2)C1)N1CC2(CC(c3nc(C4CC(F)(F)C4)n[nH]3)C2)C1` [compound 574], `O=C(N1CC2(CC(Cc3ccc(C(F)(F)F)cn3)C2)C1)N1CC2(CC(c3nc(C4COC4)n[nH]3)C2)C1` [compound 824] is 6.3-fold lower in IC50: 65.4 nM for the first, 10.3 nM for the second. The second is the more potent here.

First: O=C(N1CC2(CCC(NS(=O)(=O)c3cccc(OC(F)(F)F)c3)CC2)C1)N1CC2(CC(c3nnc(C4CC4)[nH]3)C2)C1 [compound 348]
Second: O=C(N1CC2(CCC(Cc3ccc(C(F)(F)F)nc3)CC2)C1)N1CC2(CC(c3nnc(C4CC4)[nH]3)C2)C1 [compound 140]
The IC50 of the first is 2-fold higher: 0.63 nM for the first, 0.31 nM for the second. The second is the more potent here.

Compared with `CC(C)(O)C1CN(c2ccc(C3CN(C(=O)N4CC5(CC(c6nnc(C7CC7)[nH]6)C5)C4)C3)cn2)C1` [compound 298], `Cc1cc(C)n(-c2ccc(C3CN(C(=O)N4CC5(CC(c6nnc(C7CC7)[nH]6)C5)C4)C3)cc2)n1` [compound 294] is 14-fold lower in IC50: 8.03 nM for the first, 0.56 nM for the second.

First: O=C(N1CC2(CC(c3nnc(C4CC4)[nH]3)C2)C1)N1CC2(CC[C@H](Oc3cnc(C(F)(F)F)cn3)C2)C1 [compound 90]
Second: N#Cc1cc(C(F)(F)F)ncc1C[C@H]1CCC2(C1)CN(C(=O)N1CC3(CC(c4nnc(C5CC5)[nH]4)C3)C1)C2 [compound 611]
The IC50 of the first is 12-fold higher: 7.88 nM for the first, 0.68 nM for the second.

First: O=C(N1CC2(CC(c3nc(C4CC4)n[nH]3)C2)C1)N1CC2(CN(Cc3cccn(CC(F)(F)F)c3=O)C2)C1 [compound 572]
Second: O=C(N1CC2(CC(c3nc(C4CC4)n[nH]3)C2)C1)N1CC2(CN(Cc3ccc[nH]c3=O)C2)C1 [compound 718]
The IC50 of the first is 3-fold lower: 184 nM for the first, 550 nM for the second.

Going from `O=C(N1CC2(CCC(Cc3ccc(C(F)(F)F)cn3)C2)C1)N1CC2(CC(c3nc(C4(O)CC4)n[nH]3)C2)C1` (stereo not drawn) [compound 927] to `O=C(N1CC2(CC(Cc3ccc(C(F)(F)F)cc3F)C2)C1)N1CC2(CC(c3nnc(C4(O)CC4)[nH]3)C2)C1` [compound 38], the IC50 falls from 2.51 nM to 0.01 nM (250-fold).

Going from `O=C(N1CC(C23CC(Oc4cnc(C(F)(F)F)cn4)(C2)C3)C1)N1CC2(CC(c3nc(C4CC4)n[nH]3)C2)C1` [compound 707] to `O=C(N1CC(C23CC(Cn4ccc(C(F)(F)F)cc4=O)(C2)C3)C1)N1CC2(CC(c3nc(C4CC4)n[nH]3)C2)C1` [compound 947], the IC50 rises from 2.44 nM to 9.12 nM (3.7-fold). The first is the more potent here.

Compared with `O=C(N1CC2(CC(Cc3cccc(S(=O)(=O)C(F)(F)F)c3)C2)C1)N1CC2(CC(c3nc(C4(F)CC4)n[nH]3)C2)C1` [compound 627], `N=S(=O)(c1cc(F)cc(CC2CC3(C2)CN(C(=O)N2CC4(CC(c5nc(C6CC6)n[nH]5)C4)C2)C3)c1)C(F)(F)F` (stereo not drawn) [compound 649] is 2.4-fold higher in IC50: 0.05 nM for the first, 0.12 nM for the second. The first is the more potent here.

Compared with `Cc1nc(C(F)F)nn1-c1ccc(C2CN(C(=O)N3CC4(CC(c5nnc(C6CC6)[nH]5)C4)C3)C2)cc1` [compound 534], `CC(C)c1ccc(N(C)c2ccc(C3CN(C(=O)N4CC5(CC(c6nnc(C7CC7)[nH]6)C5)C4)C3)cn2)cc1` [compound 382] is 3.9-fold higher in IC50: 5.42 nM for the first, 21.4 nM for the second.

Going from `N#Cc1ccc(CC2CC3(C2)CN(C(=O)N2CC4(CC(c5nc(C6COC6)n[nH]5)C4)C2)C3)cc1C(F)(F)F` [compound 771] to `O=C(N1CC2(CC(Cc3ccc(OC(F)(F)F)nc3)C2)C1)N1CC2(CC(c3nc(C4COC4)n[nH]3)C2)C1` [compound 769], the IC50 rises from 7.02 nM to 11.8 nM (1.7-fold).

Going from `Cn1c(CN2CC3(C2)CN(C(=O)N2CC4(CC(c5nc(C6CC6)n[nH]5)C4)C2)C3)nnc1C(F)(F)F` [Example 958, [6-(3-cyclopropyl-1H-1,2,4-triazol-5-yl)-2-azaspiro[3.3]heptan-2-yl]-[6-[[4-methyl-5-(trifluoromethyl)-1,2,4-triazol-3-yl]methyl]-2,6-diazaspiro[3.3]heptan-2-yl]methanone] to `Cn1nc(C(F)(F)F)cc1CN1CCC2(CC1)CN(C(=O)N1CC3(CC(c4nc(C5CC5)n[nH]4)C3)C1)C2` [compound 539], the IC50 falls from 152 nM to 9.25 nM (16-fold). The second is the more potent here.

Going from `CS(=N)(=O)c1ccc(CC2CC3(C2)CN(C(=O)N2CC4(CC(c5nc(C6CC(F)(F)C6)n[nH]5)C4)C2)C3)cc1` (stereo not drawn) [compound 976] to `O=C(N1CC2(CC(Cc3ccc(F)cc3C(F)(F)F)C2)C1)N1CC2(CC(c3nc(C4CC(F)(F)C4)n[nH]3)C2)C1` [compound 468], the IC50 falls from 1790 nM to 2.5 nM (720-fold). The second is the more potent here.

First: O=C(N1CC2(CC(c3nnc(C4(O)CC4)[nH]3)C2)C1)N1CC2(CN(Cc3ccc(F)cc3F)C2)C1 [compound 157]
Second: O=C(N1CC2(CC(c3nnc(C4CCC4)[nH]3)C2)C1)N1CC2(CN(Cc3ccc(F)cc3F)C2)C1 [Example 158, [6-(5-cyclobutyl-4H-1,2,4-triazol-3 yl)-2-azaspiro[3.3]heptan-2-yl]-[6-[(2,4-difluorophenyl)methyl]-2,6-diazaspiro[3.3]heptan-2-yl]methanone]
The IC50 of the first is 9.5-fold lower: 15.8 nM for the first, 150 nM for the second. The first is the more potent here.

Going from `O=C(N1CC2(CC(c3nnc(C4CC4)[nH]3)C2)C1)N1CC2(CC(c3ccc(C(F)(F)F)cc3F)C2)C1` [compound 938] to `O=C(N1CC2(CC(c3ccc(C(F)(F)F)nc3)C2)C1)N1CC2(CC(c3nc(C4CC4)n[nH]3)C2)C1` [compound 805], the IC50 rises from 0.29 nM to 4.73 nM (16-fold).

First: O=C(N1CC2(CC(c3nnc(C4CC4)[nH]3)C2)C1)N1CC2(C1)CN(S(=O)(=O)C13CC(C(F)(F)F)(C1)C3)C2 [compound 135]
Second: O=C(N1CC2(CC(c3nnc(C4CC4)[nH]3)C2)C1)N1CC2(CN(Cc3ccc(S(=O)(=O)C(F)(F)F)cc3)C2)C1 [compound 86]
The IC50 of the first is 28-fold higher: 25.3 nM for the first, 0.92 nM for the second.

Compared with `Cn1nc(CC2CC3(C2)CN(C(=O)N2CC4(CC(c5nc(C6CC(F)(F)C6)n[nH]5)C4)C2)C3)cc1C(F)(F)F` [compound 511], `O=C(N1CC2(CC(Cn3cc(S(=O)(=O)C(F)(F)F)cn3)C2)C1)N1CC2(CC(c3nc(C4CC4)n[nH]3)C2)C1` [compound 951] is 74-fold lower in IC50: 20.8 nM for the first, 0.28 nM for the second.

Going from `O=C(N1CCC(C23CC(c4nnc(C5(C(F)(F)F)CC5)o4)(C2)C3)CC1)N1CC2(CC(c3nc(C4CC4)n[nH]3)C2)C1` [compound 418] to `O=C(N1CC2(CCC(Cc3nnc(C(F)(F)F)o3)CC2)C1)N1CC2(CC(c3nc(C4CC4)n[nH]3)C2)C1` [compound 779], the IC50 falls from 192 nM to 8.36 nM (23-fold).

Compared with `O=C(N1CC(NCc2ccc(OC(F)(F)F)cc2)C1)N1CC2(CC(c3nnc(C4CC4)[nH]3)C2)C1` [compound 191], `Cc1csc(C(=O)N2CCN(C(=O)N3CC4(CC(c5nnc(C6CC6)[nH]5)C4)C3)CC2)c1` [Example 872, [4-[6-(5-cyclopropyl-4H-1,2,4-triazol-3-yl)-2-azaspiro[3.3]heptane-2-carbonyl]piperazino]-(4-methyl-2-thienyl)methanone] is 23-fold higher in IC50: 45.6 nM for the first, 1040 nM for the second. The first is the more potent here.

Going from `O=C(N1CC(C23CC(c4cc(C5CC5)n[nH]4)(C2)C3)C1)N1CC2(CC(c3nc(C4CC4)n[nH]3)C2)C1` [compound 514] to `O=C(N1CC2(CC(Cc3cc(C4CC4)n[nH]3)C2)C1)N1CC2(CC(c3nc(C4CC4)n[nH]3)C2)C1` [compound 644], the IC50 falls from 0.47 nM to 0.22 nM (2.1-fold). The second is the more potent here.

Going from `O=C(N1CC2(CCC(S(=O)(=O)c3cccc(C(F)(F)F)c3)CC2)C1)N1CC2(CC(c3nc(C4CC4)n[nH]3)C2)C1` [compound 435] to `CS(=O)(=O)c1ccccc1C12CC(C3CN(C(=O)N4CC5(CC(c6nc(C7CC7)n[nH]6)C5)C4)C3)(C1)C2` [compound 909], the IC50 falls from 3.95 nM to 0.51 nM (7.7-fold). The second is the more potent here.

Compared with `O=C(N1CC2(CC(Cc3cc(C(F)F)c[nH]c3=O)C2)C1)N1CC2(CC(c3nc(C4CC4)n[nH]3)C2)C1` [compound 956], `CS(=O)(=O)c1ccccc1-c1ccc(C2CN(C(=O)N3CC4(CC(c5nc(C6CC6)n[nH]5)C4)C3)C2)cc1` [Example 516, [6-(3-cyclopropyl-1H-1,2,4-triazol-5-yl)-2-azaspiro[3.3]heptan-2-yl]-[3-[4-(2-mesylphenyl)phenyl]azetidin-1-yl]methanone] is 8.7-fold lower in IC50: 1.48 nM for the first, 0.17 nM for the second.
